Laboratory results from patent US20250052744A1, “Dyes and Uses Thereof” (The University of Liverpool, priority 2021, published 2025).

Experiments:
Assay in all cases: Bacterial growth with dyes, optical density after 24 hours
Type in all cases: cell-based
Settings in all cases: with 3 μM DiSC3(5) and 3 μM SYTO 13/9
[1] = test system: E. Coli SEC 31
Method: (§1) FIG. 3 is a graph showing is a graph showing the average optical density after 24 hours (OD 600) of P. Aeruginosa NCTC 10332, E. Coli SEC 31, Enterococcus faecium NCTCT 7171, P. Mirabilis NCTC 11938, S. Aureus NCTC 8532 and Klebsiella pneumoniae NCTC 9633, when incubated with DiSC3(5), SYBR Green I and SYTO 13/9 where different concentrations of SYBR Green I were assessed.
as §1, with “FIG. 4” for “FIG. 3”, “of SYTO 13/9” for “of SYBR Green I”
(§2) Comparative experiments were conducted using multiple DNA dyes in low concentration and one DNA at different (and higher) concentration in order to establish whether increasing DNA dye concentration would affect bacterial growth and hinder the differentiation of bacterial strains.
(§3) Experiments were conducted which were similar to Example 1.
(§4) In one experiment, 3 μM of DiSC3(5) and 3 μM of SYTO 13/9 was assessed with CYBR Green I at the following concentrations: 1× average, 3× average, 10× average, 30 average and 100× average.
(§5) In another experiment, 3 μM of DiSC3(5) and 10× of CYBR Green I was assessed with SYTO 13/9 at the following concentrations: 1 μM average, 3 μM average and 10 μM average.

[2] = test system: Enterococcus faecium NCTCT 7171
Method: as §1
as §1, with “FIG. 4” for “FIG. 3”, “of SYTO 13/9” for “of SYBR Green I”
as §2, §3, §4, §5

[3] = test system: Klebsiella pneumoniae NCTC 9633
Method: as §1
as §1, with “FIG. 4” for “FIG. 3”, “of SYTO 13/9” for “of SYBR Green I”
as §2, §3, §4, §5

[4] = test system: P. Aeruginosa NCTC 10332
Method: as §1
as §1, with “FIG. 4” for “FIG. 3”, “of SYTO 13/9” for “of SYBR Green I”
as §2, §3, §4, §5

[5] = test system: P. Mirabilis NCTC 11938
Method: as §1
as §1, with “FIG. 4” for “FIG. 3”, “of SYTO 13/9” for “of SYBR Green I”
as §2, §3, §4, §5

[6] = test system: S. Aureus NCTC 8532
Method: as §1
as §1, with “FIG. 4” for “FIG. 3”, “of SYTO 13/9” for “of SYBR Green I”
as §2, §3, §4, §5

SMILES: CCCN(CCCN(C)C)c1cc(/C=C2/Sc3ccccc3N2C)c2ccccc2[n+]1-c1ccccc1 [SYBR Green I, N′,N′-dimethyl-N-[4-[(E)-(3-methyl-1,3-benzothiazol-2-ylidene)methyl]-1-phenylquinolin-1-ium-2-yl]-N-propylpropane-1,3-diamine]
- average optical density after 24 hours (OD 600) ([1]; SYBR Green I 1x): 3.407
- average optical density after 24 hours (OD 600) ([1]; SYBR Green I 3x): 3.306
- average optical density after 24 hours (OD 600) ([1]; SYBR Green I 10x): 3.139
- average optical density after 24 hours (OD 600) ([1]; SYBR Green I 30x): 2.086
- average optical density after 24 hours (OD 600) ([1]; SYBR Green I 100x): 2.514
- average optical density after 24 hours (OD 600) ([2]; SYBR Green I 1x): 1.158
- average optical density after 24 hours (OD 600) ([2]; SYBR Green I 3x): 1.315
- average optical density after 24 hours (OD 600) ([2]; SYBR Green I 10x): 0.136
- average optical density after 24 hours (OD 600) ([2]; SYBR Green I 30x): 0
- average optical density after 24 hours (OD 600) ([2]; SYBR Green I 100x): 0.022
- average optical density after 24 hours (OD 600) ([3]; SYBR Green I 1x): 4.719
- average optical density after 24 hours (OD 600) ([3]; SYBR Green I 3x): 4.907
- average optical density after 24 hours (OD 600) ([3]; SYBR Green I 10x): 3.439
- average optical density after 24 hours (OD 600) ([3]; SYBR Green I 30x): 2.053
- average optical density after 24 hours (OD 600) ([3]; SYBR Green I 100x): 1.138
- average optical density after 24 hours (OD 600) ([4]; SYBR Green I 1x): 5.785
- average optical density after 24 hours (OD 600) ([4]; SYBR Green I 3x): 5.785
- average optical density after 24 hours (OD 600) ([4]; SYBR Green I 10x): 2.968
- average optical density after 24 hours (OD 600) ([4]; SYBR Green I 30x): 3.113
- average optical density after 24 hours (OD 600) ([4]; SYBR Green I 100x): 2.39
- average optical density after 24 hours (OD 600) ([5]; SYBR Green I 1x): 5.785
- average optical density after 24 hours (OD 600) ([5]; SYBR Green I 3x): 5.785
- average optical density after 24 hours (OD 600) ([5]; SYBR Green I 10x): 4.635
- average optical density after 24 hours (OD 600) ([5]; SYBR Green I 30x): 4.044
- average optical density after 24 hours (OD 600) ([5]; SYBR Green I 100x): 0.001
- average optical density after 24 hours (OD 600) ([6]; SYBR Green I 1x): 3.796
- average optical density after 24 hours (OD 600) ([6]; SYBR Green I 3x): 0
- average optical density after 24 hours (OD 600) ([6]; SYBR Green I 10x): 0
- average optical density after 24 hours (OD 600) ([6]; SYBR Green I 30x): 0
- average optical density after 24 hours (OD 600) ([6]; SYBR Green I 100x): 0
